The source of these data is US20230233569A1 (Revolution Medicines, Inc., priority 2020, published 2023).

Several values for one entry are separate records, joined by “and”; a condition that tells them apart may be missing. Equal values may be shown once.

The term IC50 denotes the point on the concentration scale where inhibition reaches its midpoint. As a reminder, the EC50 is the concentration at which the effect is half-maximal.

Experiment [1] concerns the target T1, KRAS G13C (Homo sapiens, UniProt P01116+P62937, G13C). Nature of the experiment: Disruption of BRAF RBD interaction with Ras (FRET / MOA assay, with Cyclophilin A). Type of experiment: biochemical. The conditions noted are these: KRAS G13C; read-out: KRAS G13C FRET data IC50. In short, it runs like this:
(§1)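 Here, compound titrations (ten points, factor 3, from 30 μM final) act on nucleotide-bound K-Ras and Cyclophilin A, and ternary complex formation disrupts the RAF RBD interaction.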
Target sequence in this assay (P01116 1-169 isoform P01116-2 G13C): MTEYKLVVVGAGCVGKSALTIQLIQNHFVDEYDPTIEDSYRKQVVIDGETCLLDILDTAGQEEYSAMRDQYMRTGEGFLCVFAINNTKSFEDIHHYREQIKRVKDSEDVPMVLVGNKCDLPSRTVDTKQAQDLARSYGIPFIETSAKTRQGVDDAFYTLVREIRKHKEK
Target sequence in this assay (P62937 whole entry): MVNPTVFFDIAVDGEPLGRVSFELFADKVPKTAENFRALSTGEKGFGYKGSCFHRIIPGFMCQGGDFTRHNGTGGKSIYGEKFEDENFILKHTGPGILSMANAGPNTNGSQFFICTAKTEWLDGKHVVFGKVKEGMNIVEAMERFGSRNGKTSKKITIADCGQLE

Experiment [2] addresses T2, KRAS G12V (Homo sapiens, UniProt P01116+P62937, G12V). The experiment is described as above. Format: biochemical. The conditions noted are these: KRAS G12V; read-out: KRAS G12V FRET data IC50. Put shortly: as §1
For experiment [3], the target named is T3, KRAS WT (Homo sapiens, UniProt P01116+P62937). The experiment is described as above. Format: biochemical. The conditions noted are these: KRAS WT; read-out: KRAS WT FRET data IC50. Put shortly:
as §1

The target of experiment [4] is T4, KRAS G12S (Homo sapiens, UniProt P01116+P62937, G12S). The description is as above. As to conditions: read-out: KRAS G12S FRET data, IC50. Format: biochemical. In short, it runs like this: as §1
The target of experiment [5] is T5, KRAS G12D (Homo sapiens, UniProt P01116+P62937, G12D). Described as above. Format: biochemical. The conditions noted are these: read-out: KRAS G12D FRET data, IC50. Put shortly:
as §1

Experiment [6] has as its target T6, KRAS G12C (Homo sapiens, UniProt P01116+P62937, G12C). Described as above. Format: biochemical. As to conditions: KRAS G12C; read-out: KRAS G12C FRET data IC50. Put shortly: as §1
Target sequence in this assay (P01116 1-169 isoform P01116-2 G12C): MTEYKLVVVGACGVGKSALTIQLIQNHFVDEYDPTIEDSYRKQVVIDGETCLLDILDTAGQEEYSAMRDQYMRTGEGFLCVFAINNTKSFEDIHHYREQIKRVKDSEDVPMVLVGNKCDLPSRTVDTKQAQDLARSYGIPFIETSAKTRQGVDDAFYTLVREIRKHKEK
Target sequence in this assay (P62937 whole entry): as the sequence (P62937 whole entry) above
Experiment [7] addresses T7, KRAS G13D (Homo sapiens, UniProt P01116+P62937, G13D). The experiment is described as above. As to conditions: KRAS G13D; read-out: KRAS G13D FRET data IC50. Format: biochemical. Put shortly:
as §1

Experiment [8] addresses T8, NRAS G12C (Homo sapiens, UniProt P01111+P62937, G12C). The description is as above. Type of experiment: biochemical. The conditions noted are these: NRAS G12C; read-out: NRAS G12C FRET data IC50.
The subject of experiment [9] is K-Ras G12C (NCI-H358 cells). The experiment in a line: Potency assay: pERK (AlphaLISA SureFire or In-Cell Western). Type of experiment: cell-based. As to conditions: Homo sapiens, NCI-H358; H358 KRAS G12C; read-out: pERK EC50. The protocol: (§2) The purpose of this assay is to measure the ability of test compounds to inhibit K-Ras in cells. […] This procedure measures a decrease in cellular pERK in response to test compounds.
(§3) NCI-H358 cells were grown and maintained using media and procedures recommended by the ATCC. On the day prior to compound addition, cells were plated in 384-well cell culture plates (40 μl/well) and grown overnight in a 37° C., 5% CO2 incubator. Test compounds were prepared in 10, 3-fold dilutions in DMSO, with a high concentration of 10 mM. On the day of assay, 40 nL of test compound was added to each well of cell culture plate using an Echo550 liquid handler (LabCyte®). Concentrations of test compound were tested in duplicate. After compound addition, cells were incubated 4 hours at 37° C., 5% CO2. Following incubation, culture medium was removed and cells were washed once with phosphate buffered saline.
(§4) In some experiments, cellular pERK level was determined using the AlphaLISA SureFire Ultra p-ERK1/2 Assay Kit (PerkinElmer). Cells were lysed in 25 μL lysis buffer, with shaking at 600 RPM at room temperature. […] After a 2-hour incubation in the dark, 5 μL donor mix was added, plate was sealed, and incubated 2 hours at room temperature. Signal was read on an Envision plate reader (PerkinElmer) using standard AlphaLISA settings. Analysis of raw data was carried out in Excel (Microsoft) and Prism (GraphPad). Signal was plotted vs. the decadal logarithm of compound concentration, and IC50 was determined by fitting a 4-parameter sigmoidal concentration response model.
In other experiments, cellular pERK was determined by In-Cell Western. […] Fixed cells were washed 4 times for 5 minutes with TBS containing 0.1% Triton X-100 (TBST) and then blocked with 100 μL Odyssey blocking buffer (LI-COR) for 60 minutes at room temperature. […] Cells were washed 4 times for 5 minutes with TBST. Secondary antibody (IR-800CW rabbit, LI-COR, diluted 1:800) and DNA stain DRAQ5 (LI-COR, diluted 1:2000) were added and incubated 1-2 hours at room temperature. Cells were washed 4 times for 5 minutes with TBST. Plates were scanned on a LI-COR Odyssey CLx Imager. Analysis of raw data was carried out in Excel (Microsoft) and Prism (GraphPad). Signal was plotted vs. the decadal logarithm of compound concentration, and IC50 was determined by fitting a 4-parameter sigmoidal concentration response model.
as §2
as §3, with “mM. On day of” for “mM. On the day of”, “assay, 40 nl of test” for “assay, 40 nL of test”
as §4, with “μl” for “μL”, “sealed” for “sealed,”

Experiment [10] has as its target T1, KRAS G13C. Nature of the experiment: Ras-Raf disruption / FRET / MOA assay (BRAF RBD). Type of experiment: biochemical. As to conditions: Ras-Raf disruption, with Cyclophilin A; read-out: KRAS G13C FRET data IC50. Put shortly:
(§5)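 TR-FRET in 25 mM HEPES pH 7.3, 100 mM NaCl, 5 mM MgCl2, 0.1% BSA, 0.002% Tween20 with 25 μM Cyclophilin A, 12.5 nM His6-Ras-GMPPNP, 50 nM GST-BRAF RBD; compound 10-point 3-fold series from 30 μM. After 3 h at 25 °C, Eu anti-His/APC anti-GST added for 1.5 h; IC50 from ratio decrease versus DMSO.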
Target sequence in this assay (P01116 1-169 isoform P01116-2 G13C limits assumed): as the sequence (P01116 1-169 isoform P01116-2 G13C) above
Target sequence in this assay (P62937 whole entry): as the sequence (P62937 whole entry) above

The target of experiment [11] is T2, KRAS G12V. Nature of the experiment: Ras-Raf disruption / FRET / MOA assay (BRAF RBD). Format: biochemical. The conditions noted are these: Ras-Raf disruption, with Cyclophilin A; read-out: KRAS G12V FRET data IC50. In short, it runs like this: as §5
Experiment [12] concerns the target T3, KRAS WT. Nature of the experiment: Ras-Raf disruption / FRET / MOA assay (BRAF RBD). Format: biochemical. As to conditions: Ras-Raf disruption, with Cyclophilin A; read-out: KRAS WT FRET data IC50. In short, it runs like this: as §5
The target of experiment [13] is KRAS Q61H (Homo sapiens, UniProt P01116+P62937, Q61H). Nature of the experiment: Ras-Raf disruption / FRET / MOA assay (BRAF RBD). The conditions noted are these: KRAS Q61H; read-out: KRAS Q61H FRET data IC50. Type of experiment: biochemical. In short, it runs like this: as §5
For experiment [14], the target named is T4, KRAS G12S. The experiment in a line: Ras-Raf disruption / FRET / MOA assay (BRAF RBD). Format: biochemical. The conditions noted are these: Ras-Raf disruption, with Cyclophilin A; read-out: KRAS G12S FRET data IC50. Put shortly:
as §5

In experiment [15] the target is T5, KRAS G12D. Nature of the experiment: Ras-Raf disruption / FRET / MOA assay (BRAF RBD). Type of experiment: biochemical. As to conditions: Ras-Raf disruption, with Cyclophilin A; read-out: KRAS G12D FRET data IC50. In short, it runs like this: as §5
Experiment [16] deals with NRAS Q61R (Homo sapiens, UniProt P01111+P62937, Q61R). Nature of the experiment: Ras-Raf disruption / FRET / MOA assay (BRAF RBD). Type of experiment: biochemical. The conditions noted are these: NRAS Q61R; read-out: NRAS Q61R FRET data IC50. In short, it runs like this: as §5
In experiment [17] the target is NRAS Q61K (Homo sapiens, UniProt P01111+P62937, Q61K). The experiment in a line: Ras-Raf disruption / FRET / MOA assay (BRAF RBD). Type of experiment: biochemical. The conditions noted are these: NRAS Q61K; read-out: NRAS Q61K FRET data IC50. In short, it runs like this: as §5
The target of experiment [18] is T7, KRAS G13D. Nature of the experiment: Ras-Raf disruption / FRET / MOA assay (BRAF RBD). Format: biochemical. The conditions noted are these: Ras-Raf disruption, with Cyclophilin A; read-out: KRAS G13D FRET data IC50. Put shortly:
as §5

The target of experiment [19] is T8, NRAS G12C. The experiment in a line: Ras-Raf disruption / FRET / MOA assay (BRAF RBD). Format: biochemical. The conditions noted are these: NRAS G12C; read-out: NRAS G12C FRET data IC50. Put shortly:
as §5

Experiment [20] has as its target NRAS WT (Homo sapiens, UniProt P01111+P62937). Nature of the experiment: Ras-Raf disruption / FRET / MOA assay (BRAF RBD). Type of experiment: biochemical. The conditions noted are these: NRAS WT; read-out: NRAS WT FRET data IC50. In short, it runs like this: as §5
Experiment [21] has as its target T6, KRAS G12C. Nature of the experiment: Ras-Raf disruption / FRET / MOA assay (BRAF RBD). Format: biochemical. As to conditions: Ras-Raf disruption, with Cyclophilin A; read-out: KRAS G12C FRET data IC50. In short, it runs like this:
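His6-K-Ras G12C-GMPPNP (12.5 nM), GST-BRAF RBD (50 nM) and tagless Cyclophilin A (25 μM) incubated 3 h at 25 °C with compound (10-point 3-fold series from 30 μM), pH 7.3 HEPES buffer. Anti-His Eu/anti-GST APC added for 1.5 h; decreased TR-FRET ratio vs DMSO gives IC50.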
Target sequence in this assay (P01116 1-169 isoform P01116-2 G12C limits assumed): as the sequence (P01116 1-169 isoform P01116-2 G12C) above
Target sequence in this assay (P62937 whole entry): as the sequence (P62937 whole entry) above

T5 sequence (P01116 1-169 isoform P01116-2 G12D limits assumed): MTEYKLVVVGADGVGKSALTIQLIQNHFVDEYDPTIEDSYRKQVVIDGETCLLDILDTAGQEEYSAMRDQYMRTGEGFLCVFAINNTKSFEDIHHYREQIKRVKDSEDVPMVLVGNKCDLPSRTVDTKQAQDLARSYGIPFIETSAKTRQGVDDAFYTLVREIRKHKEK
T5 sequence (P62937 whole entry): as the sequence (P62937 whole entry) above
T7 sequence (P01116 1-169 isoform P01116-2 G13D limits assumed): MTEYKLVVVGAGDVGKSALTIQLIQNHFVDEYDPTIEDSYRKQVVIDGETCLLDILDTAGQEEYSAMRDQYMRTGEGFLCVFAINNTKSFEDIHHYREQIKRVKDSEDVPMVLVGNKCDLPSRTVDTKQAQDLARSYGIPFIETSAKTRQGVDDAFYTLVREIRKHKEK
T7 sequence (P62937 whole entry): as the sequence (P62937 whole entry) above
T4 sequence (P01116 1-169 isoform P01116-2 G12S limits assumed): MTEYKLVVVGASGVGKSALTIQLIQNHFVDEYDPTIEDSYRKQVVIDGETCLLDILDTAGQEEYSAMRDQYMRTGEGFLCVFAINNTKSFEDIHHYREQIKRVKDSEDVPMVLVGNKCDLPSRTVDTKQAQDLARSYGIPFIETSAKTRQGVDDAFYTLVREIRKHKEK
T4 sequence (P62937 whole entry): as the sequence (P62937 whole entry) above
T3 sequence (P01116 1-169 isoform P01116-2 limits assumed): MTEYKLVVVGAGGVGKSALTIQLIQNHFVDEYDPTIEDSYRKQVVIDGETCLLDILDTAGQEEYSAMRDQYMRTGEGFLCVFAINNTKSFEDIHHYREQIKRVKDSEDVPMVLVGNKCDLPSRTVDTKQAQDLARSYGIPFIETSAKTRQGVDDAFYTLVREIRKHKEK
T3 sequence (P62937 whole entry): as the sequence (P62937 whole entry) above
T8 sequence (P01111 whole entry G12C): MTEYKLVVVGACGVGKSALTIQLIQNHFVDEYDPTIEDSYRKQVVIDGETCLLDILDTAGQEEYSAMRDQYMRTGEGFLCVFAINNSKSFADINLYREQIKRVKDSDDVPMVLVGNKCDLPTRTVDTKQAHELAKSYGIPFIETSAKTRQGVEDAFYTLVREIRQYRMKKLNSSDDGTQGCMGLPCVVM
T8 sequence (P62937 whole entry): as the sequence (P62937 whole entry) above
T2 sequence (P01116 1-169 isoform P01116-2 G12V limits assumed): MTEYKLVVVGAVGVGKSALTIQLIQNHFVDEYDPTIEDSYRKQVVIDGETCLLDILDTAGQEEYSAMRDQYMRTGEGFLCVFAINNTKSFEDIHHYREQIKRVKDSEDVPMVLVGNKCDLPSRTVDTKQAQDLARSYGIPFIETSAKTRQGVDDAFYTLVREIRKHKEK
T2 sequence (P62937 whole entry): as the sequence (P62937 whole entry) above
Sequence of KRAS Q61H (P01116 1-169 isoform P01116-2 Q61H limits assumed): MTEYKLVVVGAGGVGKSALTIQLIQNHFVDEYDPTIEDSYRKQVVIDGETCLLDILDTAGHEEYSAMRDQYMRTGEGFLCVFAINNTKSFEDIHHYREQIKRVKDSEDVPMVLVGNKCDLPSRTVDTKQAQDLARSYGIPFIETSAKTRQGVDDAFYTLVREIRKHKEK
Sequence of KRAS Q61H (P62937 whole entry): as the sequence (P62937 whole entry) above
Sequence of NRAS Q61R (P01111 whole entry Q61R): as the sequence (P01111 whole entry G12C) above, with C12G, Q61R counted along it
Sequence of NRAS Q61R (P62937 whole entry): as the sequence (P62937 whole entry) above
Sequence of NRAS Q61K (P01111 whole entry Q61K): as the sequence (P01111 whole entry G12C) above, with C12G, Q61K counted along it
Sequence of NRAS Q61K (P62937 whole entry): as the sequence (P62937 whole entry) above
Sequence of NRAS WT (P01111 whole entry): as the sequence (P01111 whole entry G12C) above, with C12G counted along it
Sequence of NRAS WT (P62937 whole entry): as the sequence (P62937 whole entry) above

With `C=CC(=O)N1CC(OC[C@H](C(=O)N[C@H]2Cc3cccc(c3)-c3ccc4c(c3)c(c(-c3cccnc3[C@H](C)OC)n4CC)CC(C)(C)COC(=O)[C@@H]3CCCN(N3)C2=O)C(C)C)C1` (racemic) [Example A483], the IC50 in experiment [1] is 1 to 10 µM; in experiment [2] it was 1 to 10 µM; in experiment [3] it was 1 to 10 µM; in experiment [4], more than 10 µM; in experiment [5], more than 10 µM; in experiment [6], 0.1 to 1 µM. For the same molecule, the IC50 in [7] was more than 10 µM; in [8], 0.1 to 1 µM. Besides, the EC50 in [9] is less than 5 µM.
With `C=CC(=O)N1CC[C@H](C(=O)N(C)[C@H](C(=O)N[C@H]2Cc3cc(O)cc(c3)-c3ccc4c(c3)c(c(-c3cnn(C)c3[C@H](C)OC)n4CC)CC(C)(C)COC(=O)[C@@H]3CCCN(N3)C2=O)C(C)C)C1` [Example A166], the EC50 in experiment [9] is less than 5 µM.
Take `C=CC(=O)N1CC[C@H](C(=O)N(C)[C@H](C(=O)N[C@H]2Cc3cc(O)cc(c3)-c3ccc4c(C(C)(C)C#N)c(-c5ccccc5CCOC)n(c4c3)CC(C)(C)COC(=O)[C@@H]3CCCN(N3)C2=O)C(C)C)C1` [Example A12]: the EC50 in [9] is less than 5 µM.
In the case of `C=CC(=O)N1CC[C@]2(CCN([C@H](C(=O)N[C@H]3Cc4cc(O)cc(c4)-c4ccc5c(c4)c(c(-c4ccccc4CCOC)n5CC)CC(C)(C)COC(=O)[C@@H]4CCCN(N4)C3=O)C(C)C)C2=O)C1` [Example A216], the concentration for half-maximal inhibition (IC50) in [1] is 0.1 to 1 µM and > 10 µM; in experiment [2], 1 to 10 µM and > 10 µM; in experiment [3], 1 to 10 µM and > 10 µM; in [4], 1 to 10 µM and > 10 µM; in [5], more than 10 µM; in [6] it was 0.1 to 1 µM and 1 to 10 µM. Also, in experiment [9], the EC50 is less than 5 µM.
As for `CCn1c(-c2cccnc2[C@H](C)OC)c2c3cc(ccc31)-c1csc(n1)C[C@H](NC(=O)[C@H](C(C)C)N(C)C(=O)N(C)[C@H]1CCN(C(=O)[C@H]3CN3)C1)C(=O)N1CCC[C@H](N1)C(=O)OCC(C)(C)C2` (atropisomer, axis not shown) [Example 296], the IC50 lay within 0.1 to 1 µM in experiment [10]; 1 to 10 µM in experiment [11]; 0.1 to 1 µM in experiment [12]; 0.1 to 1 µM in experiment [13]; 0.1 to 1 µM in experiment [14]; 1 to 10 µM in experiment [15]. For the same molecule, the IC50 in experiment [16] fell in the range of 0.1 to 1 µM; in experiment [17], 0.1 to 1 µM; in [18], 1 to 10 µM; in experiment [19], 0.1 to 1 µM; in experiment [20], 0.1 to 1 µM; in experiment [21], 0.1 to 1 µM.
With `CCn1c(-c2cccnc2[C@H](C)OC)c2c3cc(ccc31)-c1cc(O)cc(c1)C[C@H](NC(=O)[C@H](C(C)C)N(C)C(=O)CN(C)S(=O)(=O)[C@@H]1CN1C)C(=O)N1CCC[C@H](N1)C(=O)OCC(C)(C)C2` (single isomer, unassigned) [Example 92], the IC50 in experiment [10] was 0.01 to 0.1 µM; in [11], 0.1 to 1 µM; in experiment [12], 0.01 to 0.1 µM; in experiment [13] it was 0.01 to 0.1 µM; in experiment [14], 0.01 to 0.1 µM; in experiment [15], 0.1 to 1 µM. Also, the IC50 in experiment [16] lay within 0.1 to 1 µM; in [17], 0.1 to 1 µM; in experiment [18], 0.1 to 1 µM; in experiment [19], 0.01 to 0.1 µM; in experiment [20], 0.01 to 0.1 µM; in experiment [21] it was 0.01 to 0.1 µM.
